# Source: article PMC7827406, “Structure–Activity Relationship (SAR) Study of Spautin-1 to Entail the Discovery of Novel NEK4 Inhibitors” (International Journal of Molecular Sciences, 2021)
# Where two headings read alike, the source gives them in different places.
# Columns and labels:
# Test in all cases: biochemical
# Set-up in all cases: Eurofins KinaseProfiler full panel at Km ATP, residual kinase activity (%) relative to DMSO
# Axl(h) = target: T1, Axl(h) (Homo sapiens, UniProt P30530)
# T1 sequence (P30530 1-894): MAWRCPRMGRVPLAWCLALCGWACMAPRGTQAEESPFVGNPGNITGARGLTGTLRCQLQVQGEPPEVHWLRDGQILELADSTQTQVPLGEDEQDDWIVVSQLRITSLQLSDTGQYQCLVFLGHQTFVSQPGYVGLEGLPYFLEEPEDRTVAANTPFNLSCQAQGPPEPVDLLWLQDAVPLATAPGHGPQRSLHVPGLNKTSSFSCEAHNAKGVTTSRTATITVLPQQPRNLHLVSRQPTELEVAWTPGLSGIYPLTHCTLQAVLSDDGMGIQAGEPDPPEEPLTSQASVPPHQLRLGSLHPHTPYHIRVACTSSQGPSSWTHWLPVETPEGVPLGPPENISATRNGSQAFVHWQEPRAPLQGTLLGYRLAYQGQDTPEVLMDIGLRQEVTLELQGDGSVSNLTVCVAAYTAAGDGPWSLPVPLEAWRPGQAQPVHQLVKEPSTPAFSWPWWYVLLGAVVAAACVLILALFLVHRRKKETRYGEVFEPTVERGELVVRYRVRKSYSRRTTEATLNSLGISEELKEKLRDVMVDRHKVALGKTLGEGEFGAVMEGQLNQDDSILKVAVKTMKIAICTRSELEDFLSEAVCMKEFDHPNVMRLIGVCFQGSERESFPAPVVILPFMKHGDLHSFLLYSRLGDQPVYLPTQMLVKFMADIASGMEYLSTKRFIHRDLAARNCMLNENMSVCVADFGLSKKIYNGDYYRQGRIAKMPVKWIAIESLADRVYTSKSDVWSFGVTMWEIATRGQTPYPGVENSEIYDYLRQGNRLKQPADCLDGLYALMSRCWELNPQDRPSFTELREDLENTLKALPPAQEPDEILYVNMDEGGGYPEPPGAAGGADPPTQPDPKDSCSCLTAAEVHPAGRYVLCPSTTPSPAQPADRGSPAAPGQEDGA
# How it was run: (§1)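 Two 10 µM single-concentration screens were run: a competition-binding screen, in which DNA-tagged kinase bound to immobilized ligands was quantified by qPCR, and a radiometric activity panel at Km ATP. Each is expressed as residual kinase activity (%).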
# BTK(h) = BTK(h) (Homo sapiens, UniProt Q06187)
# Chain of BTK(h) (Q06187 whole entry): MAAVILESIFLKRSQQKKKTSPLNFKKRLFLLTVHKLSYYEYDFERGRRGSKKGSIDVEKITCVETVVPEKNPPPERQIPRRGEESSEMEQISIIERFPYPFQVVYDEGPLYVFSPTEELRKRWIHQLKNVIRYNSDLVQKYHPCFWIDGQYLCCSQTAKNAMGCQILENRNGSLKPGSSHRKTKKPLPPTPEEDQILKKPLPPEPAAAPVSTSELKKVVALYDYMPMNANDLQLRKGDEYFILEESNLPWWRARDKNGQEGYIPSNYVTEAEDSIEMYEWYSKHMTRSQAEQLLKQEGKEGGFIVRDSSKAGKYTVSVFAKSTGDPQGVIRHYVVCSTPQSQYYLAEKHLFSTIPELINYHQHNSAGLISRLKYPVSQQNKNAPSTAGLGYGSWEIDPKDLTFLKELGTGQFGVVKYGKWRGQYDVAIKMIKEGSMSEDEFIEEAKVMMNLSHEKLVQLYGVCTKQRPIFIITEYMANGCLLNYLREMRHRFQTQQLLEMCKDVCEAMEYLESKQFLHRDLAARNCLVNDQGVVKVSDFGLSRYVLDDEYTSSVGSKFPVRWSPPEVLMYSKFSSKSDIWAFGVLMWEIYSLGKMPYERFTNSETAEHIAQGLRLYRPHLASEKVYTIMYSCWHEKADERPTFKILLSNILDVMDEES
# How it was run: as §1
# CDK5/p25(h) = target: T2, CDK5/p25(h) (Homo sapiens, UniProt Q00535)
# T2 construct: p25
# T2 sequence (Q00535 whole entry): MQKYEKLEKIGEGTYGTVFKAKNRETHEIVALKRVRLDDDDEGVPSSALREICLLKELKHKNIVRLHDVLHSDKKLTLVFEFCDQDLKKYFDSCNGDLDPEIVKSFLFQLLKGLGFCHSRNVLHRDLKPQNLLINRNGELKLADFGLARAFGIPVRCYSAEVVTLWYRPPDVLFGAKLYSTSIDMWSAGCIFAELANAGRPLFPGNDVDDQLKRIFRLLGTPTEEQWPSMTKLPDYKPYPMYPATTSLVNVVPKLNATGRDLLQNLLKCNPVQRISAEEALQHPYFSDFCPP
# T2 sequence (Q15078 whole entry partner): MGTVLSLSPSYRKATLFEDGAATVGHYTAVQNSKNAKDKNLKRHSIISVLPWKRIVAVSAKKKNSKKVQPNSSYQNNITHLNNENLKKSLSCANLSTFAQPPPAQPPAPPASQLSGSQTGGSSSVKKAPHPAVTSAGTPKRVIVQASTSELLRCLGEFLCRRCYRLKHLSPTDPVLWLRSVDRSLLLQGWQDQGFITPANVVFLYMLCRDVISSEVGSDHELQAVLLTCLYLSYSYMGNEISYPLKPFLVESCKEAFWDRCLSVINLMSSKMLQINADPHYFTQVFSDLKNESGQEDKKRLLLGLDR
# How it was run: as §1
# CDK9/cyclin T1(h) = CDK9/cyclin T1(h) (Homo sapiens, UniProt P50750)
# Chain of CDK9/cyclin T1(h) (P50750 whole entry): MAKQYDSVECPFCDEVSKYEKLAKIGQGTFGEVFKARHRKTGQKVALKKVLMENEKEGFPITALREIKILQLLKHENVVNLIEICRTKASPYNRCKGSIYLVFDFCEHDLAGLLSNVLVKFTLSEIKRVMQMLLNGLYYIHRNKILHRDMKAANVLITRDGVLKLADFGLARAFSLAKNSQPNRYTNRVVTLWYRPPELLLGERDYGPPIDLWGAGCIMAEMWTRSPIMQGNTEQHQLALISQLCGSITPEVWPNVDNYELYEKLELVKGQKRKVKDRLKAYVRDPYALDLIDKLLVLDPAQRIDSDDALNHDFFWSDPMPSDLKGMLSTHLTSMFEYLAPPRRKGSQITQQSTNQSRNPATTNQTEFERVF
# Chain of CDK9/cyclin T1(h) (O60563 whole entry partner): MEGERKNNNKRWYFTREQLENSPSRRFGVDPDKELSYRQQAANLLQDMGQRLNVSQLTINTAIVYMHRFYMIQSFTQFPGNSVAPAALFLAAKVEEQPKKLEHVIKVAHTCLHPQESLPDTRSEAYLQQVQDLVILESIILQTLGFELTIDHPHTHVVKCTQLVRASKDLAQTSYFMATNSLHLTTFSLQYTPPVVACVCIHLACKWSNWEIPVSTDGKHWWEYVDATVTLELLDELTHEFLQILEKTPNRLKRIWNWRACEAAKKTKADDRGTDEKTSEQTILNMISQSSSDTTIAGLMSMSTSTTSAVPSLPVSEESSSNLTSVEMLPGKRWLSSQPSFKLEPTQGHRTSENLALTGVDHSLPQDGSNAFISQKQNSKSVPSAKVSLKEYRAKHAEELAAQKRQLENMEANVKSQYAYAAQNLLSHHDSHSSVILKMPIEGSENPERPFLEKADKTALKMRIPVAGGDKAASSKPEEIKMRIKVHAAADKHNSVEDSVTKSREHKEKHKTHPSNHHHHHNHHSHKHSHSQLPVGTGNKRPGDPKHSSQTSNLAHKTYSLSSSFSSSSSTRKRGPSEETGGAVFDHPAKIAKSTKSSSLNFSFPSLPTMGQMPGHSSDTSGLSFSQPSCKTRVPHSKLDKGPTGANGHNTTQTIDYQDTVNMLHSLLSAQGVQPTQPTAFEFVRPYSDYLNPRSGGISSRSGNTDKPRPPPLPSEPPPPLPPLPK
# How it was run: as §1
# CDKL4(h) = CDKL4(h) (Homo sapiens, UniProt Q5MAI5)
# Chain of CDKL4(h) (Q5MAI5 whole entry): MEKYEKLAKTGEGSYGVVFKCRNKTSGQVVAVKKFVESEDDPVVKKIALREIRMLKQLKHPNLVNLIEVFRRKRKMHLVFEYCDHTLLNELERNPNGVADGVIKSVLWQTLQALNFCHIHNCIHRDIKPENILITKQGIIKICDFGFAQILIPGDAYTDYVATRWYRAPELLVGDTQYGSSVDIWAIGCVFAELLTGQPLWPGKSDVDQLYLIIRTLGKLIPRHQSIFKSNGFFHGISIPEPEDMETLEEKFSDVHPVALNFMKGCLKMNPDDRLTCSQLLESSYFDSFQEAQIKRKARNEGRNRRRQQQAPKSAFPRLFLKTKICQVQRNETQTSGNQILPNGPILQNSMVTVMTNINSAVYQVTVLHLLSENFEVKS
# How it was run: as §1
# PKD2(h) = target: T3, PKD2(h) (Homo sapiens, UniProt Q9BZL6)
# T3 construct: gene PRKD2
# T3 sequence (Q9BZL6 1-878): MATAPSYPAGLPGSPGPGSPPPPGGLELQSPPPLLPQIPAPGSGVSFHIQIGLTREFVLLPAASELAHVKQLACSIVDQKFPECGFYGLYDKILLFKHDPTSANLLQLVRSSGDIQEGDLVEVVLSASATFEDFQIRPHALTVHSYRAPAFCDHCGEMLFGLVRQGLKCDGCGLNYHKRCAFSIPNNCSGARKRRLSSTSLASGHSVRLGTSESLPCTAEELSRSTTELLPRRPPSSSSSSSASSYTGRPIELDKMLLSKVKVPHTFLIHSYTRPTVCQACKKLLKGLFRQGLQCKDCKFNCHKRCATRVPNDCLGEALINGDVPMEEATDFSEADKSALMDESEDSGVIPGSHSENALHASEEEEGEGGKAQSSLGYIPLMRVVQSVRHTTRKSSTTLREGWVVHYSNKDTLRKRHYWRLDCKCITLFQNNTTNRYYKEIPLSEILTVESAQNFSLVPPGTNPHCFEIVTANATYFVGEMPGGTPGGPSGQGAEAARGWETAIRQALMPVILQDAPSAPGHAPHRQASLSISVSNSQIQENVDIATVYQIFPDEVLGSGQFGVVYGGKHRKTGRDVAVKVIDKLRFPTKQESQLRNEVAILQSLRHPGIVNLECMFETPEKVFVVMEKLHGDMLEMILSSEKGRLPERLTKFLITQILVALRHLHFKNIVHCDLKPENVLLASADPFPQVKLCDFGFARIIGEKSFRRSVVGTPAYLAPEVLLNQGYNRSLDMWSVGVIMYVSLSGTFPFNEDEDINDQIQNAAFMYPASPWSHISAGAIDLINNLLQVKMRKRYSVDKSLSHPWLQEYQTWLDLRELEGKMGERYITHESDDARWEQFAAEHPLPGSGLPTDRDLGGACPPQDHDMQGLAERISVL
# How it was run: as §1
# SIK3(h) = SIK3(h) (Homo sapiens, UniProt Q9Y2K2)
# Chain of SIK3(h) (Q9Y2K2 whole entry): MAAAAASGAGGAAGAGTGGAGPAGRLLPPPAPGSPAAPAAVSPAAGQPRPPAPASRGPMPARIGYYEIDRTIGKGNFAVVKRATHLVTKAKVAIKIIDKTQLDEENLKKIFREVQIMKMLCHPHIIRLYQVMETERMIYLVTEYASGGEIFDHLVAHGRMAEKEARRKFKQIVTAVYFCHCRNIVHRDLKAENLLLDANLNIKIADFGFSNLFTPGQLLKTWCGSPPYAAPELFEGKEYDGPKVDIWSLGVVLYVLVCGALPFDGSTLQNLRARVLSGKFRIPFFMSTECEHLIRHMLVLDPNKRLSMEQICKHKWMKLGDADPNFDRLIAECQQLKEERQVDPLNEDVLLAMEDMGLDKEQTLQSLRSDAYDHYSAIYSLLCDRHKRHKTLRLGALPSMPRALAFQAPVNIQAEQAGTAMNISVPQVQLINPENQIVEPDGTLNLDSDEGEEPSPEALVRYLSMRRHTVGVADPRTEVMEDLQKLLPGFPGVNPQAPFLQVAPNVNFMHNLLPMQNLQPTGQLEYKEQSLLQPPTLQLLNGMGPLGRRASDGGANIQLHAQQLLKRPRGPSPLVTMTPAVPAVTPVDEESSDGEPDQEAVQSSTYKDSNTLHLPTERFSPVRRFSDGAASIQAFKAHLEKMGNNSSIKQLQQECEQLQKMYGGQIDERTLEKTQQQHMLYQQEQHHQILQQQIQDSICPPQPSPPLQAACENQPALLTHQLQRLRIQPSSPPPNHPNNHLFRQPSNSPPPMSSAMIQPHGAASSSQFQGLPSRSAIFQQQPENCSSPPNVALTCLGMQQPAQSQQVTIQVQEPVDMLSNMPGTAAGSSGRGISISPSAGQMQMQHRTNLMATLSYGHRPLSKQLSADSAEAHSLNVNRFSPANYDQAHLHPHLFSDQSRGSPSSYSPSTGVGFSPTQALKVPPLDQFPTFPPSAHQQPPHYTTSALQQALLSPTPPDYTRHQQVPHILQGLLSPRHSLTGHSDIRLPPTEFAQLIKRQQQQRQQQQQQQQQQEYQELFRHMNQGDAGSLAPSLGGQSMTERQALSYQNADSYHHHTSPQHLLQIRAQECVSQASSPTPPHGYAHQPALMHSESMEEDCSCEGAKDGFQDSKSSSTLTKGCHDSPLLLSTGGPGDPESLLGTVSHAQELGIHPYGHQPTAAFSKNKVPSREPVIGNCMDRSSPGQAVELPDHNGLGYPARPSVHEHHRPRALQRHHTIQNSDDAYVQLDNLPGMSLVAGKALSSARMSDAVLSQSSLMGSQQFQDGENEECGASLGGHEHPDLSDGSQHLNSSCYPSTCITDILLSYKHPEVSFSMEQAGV
# How it was run: as §1
# cKit(D816H)(h) = target: T4, cKit(D816H)(h) (Homo sapiens, UniProt P10721, D816H)
# T4 construct: gene KIT
# T4 sequence (P10721 whole entry D816H): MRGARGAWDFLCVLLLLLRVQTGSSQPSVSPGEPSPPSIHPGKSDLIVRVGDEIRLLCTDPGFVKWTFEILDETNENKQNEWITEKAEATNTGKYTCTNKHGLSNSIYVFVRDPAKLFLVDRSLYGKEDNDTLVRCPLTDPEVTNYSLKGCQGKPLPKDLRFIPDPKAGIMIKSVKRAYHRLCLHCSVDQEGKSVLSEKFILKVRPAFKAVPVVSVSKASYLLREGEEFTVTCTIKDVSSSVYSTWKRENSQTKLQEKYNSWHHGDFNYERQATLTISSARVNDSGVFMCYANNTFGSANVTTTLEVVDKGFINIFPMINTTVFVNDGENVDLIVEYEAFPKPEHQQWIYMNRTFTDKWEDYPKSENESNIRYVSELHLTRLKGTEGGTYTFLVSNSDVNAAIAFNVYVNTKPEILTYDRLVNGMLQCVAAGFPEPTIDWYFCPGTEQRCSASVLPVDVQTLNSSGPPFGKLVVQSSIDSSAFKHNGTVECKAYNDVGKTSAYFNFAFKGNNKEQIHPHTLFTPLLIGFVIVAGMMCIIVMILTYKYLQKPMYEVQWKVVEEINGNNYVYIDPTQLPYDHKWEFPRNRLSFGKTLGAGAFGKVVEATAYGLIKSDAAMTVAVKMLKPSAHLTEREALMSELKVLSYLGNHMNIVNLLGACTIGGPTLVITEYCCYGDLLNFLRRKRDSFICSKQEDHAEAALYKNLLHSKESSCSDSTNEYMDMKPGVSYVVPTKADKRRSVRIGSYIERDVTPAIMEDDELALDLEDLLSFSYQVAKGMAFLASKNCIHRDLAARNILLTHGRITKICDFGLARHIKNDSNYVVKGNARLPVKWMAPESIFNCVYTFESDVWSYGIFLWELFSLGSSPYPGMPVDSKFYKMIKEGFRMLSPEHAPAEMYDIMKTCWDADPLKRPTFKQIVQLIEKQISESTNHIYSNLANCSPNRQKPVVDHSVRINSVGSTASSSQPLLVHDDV
# How it was run: as §1
# [1] = read-out: Residual activity (%) 5ay
# [2] = read-out: Residual activity (%) Spautin-1 5aa
# [3] = read-out: Residual activity (%) 5at
# [4] = read-out: Residual activity (%) 5as
compound,measurement,setting,value
"COc1ccc2ncnc(Nc3cccc(F)c3)c2c1 [5ay, N-(3-Fluorophenyl)-6-Methoxy-4-Quinazolinamine]",remaining activity at 10 µM,Axl(h); [1],64%
same,remaining activity at 10 µM,BTK(h); [1],126%
same,remaining activity at 10 µM,CDK5/p25(h); [1],80%
same,remaining activity at 10 µM,CDK9/cyclin T1(h); [1],100%
same,remaining activity at 10 µM,CDKL4(h); [1],38%
same,remaining activity at 10 µM,PKD2(h); [1],77%
same,remaining activity at 10 µM,SIK3(h); [1],81%
same,remaining activity at 10 µM,cKit(D816H)(h); [1],89%
"Fc1ccc(CNc2ncnc3ccc(F)cc23)cc1 [5aa, 6-Fluoro-N-(4-fluorobenzyl)-4-Quinazolinamine]",remaining activity at 10 µM,Axl(h); [2],62%
same,remaining activity at 10 µM,BTK(h); [2],123%
same,remaining activity at 10 µM,CDK5/p25(h); [2],73%
same,remaining activity at 10 µM,CDK9/cyclin T1(h); [2],104%
same,remaining activity at 10 µM,CDKL4(h); [2],73%
same,remaining activity at 10 µM,PKD2(h); [2],106%
same,remaining activity at 10 µM,SIK3(h); [2],95%
same,remaining activity at 10 µM,cKit(D816H)(h); [2],115%
"Fc1ccc2ncnc(NCCc3ccc(Cl)cc3)c2c1 [5at, N-[2-(4-Chlorophenyl)Ethyl]-6-Fluoro-4-Quinazolinamine]",remaining activity at 10 µM,Axl(h); [3],75%
same,remaining activity at 10 µM,BTK(h); [3],96%
same,remaining activity at 10 µM,CDK5/p25(h); [3],86%
same,remaining activity at 10 µM,CDK9/cyclin T1(h); [3],86%
same,remaining activity at 10 µM,CDKL4(h); [3],92%
same,remaining activity at 10 µM,PKD2(h); [3],76%
same,remaining activity at 10 µM,SIK3(h); [3],71%
same,remaining activity at 10 µM,cKit(D816H)(h); [3],95%
"Fc1ccc(CCNc2ncnc3ccc(F)cc23)cc1 [5as, 6-Fluoro-N-[2-(4-Fluorophenyl)Ethyl]-4-Quinazolinamine]",remaining activity at 10 µM,Axl(h); [4],90%
same,remaining activity at 10 µM,BTK(h); [4],113%
same,remaining activity at 10 µM,CDK5/p25(h); [4],89%
same,remaining activity at 10 µM,CDK9/cyclin T1(h); [4],93%
same,remaining activity at 10 µM,CDKL4(h); [4],94%
same,remaining activity at 10 µM,PKD2(h); [4],74%
same,remaining activity at 10 µM,SIK3(h); [4],79%
same,remaining activity at 10 µM,cKit(D816H)(h); [4],95%
